# Columns and labels:
# [1] = system: splice junctions in human transcripts, PNN 1-46 cells; test: RNA sequencing, splice-site (splice junction) analysis, Compound vs DMSO control; type: cell-based
# Procedure: (§1) PNN 1-46 cells derived from a Type I SMA patient were treated with Compound 702 at 500 nM for 24 hours. RNA was purified with the RNeasy Mini Kit (Qiagen) for mRNA sequencing on HiSeq 2500 (Illumina Inc., San Diego, Calif.). The quality of the total RNA was assessed using UV spectrophotometry and agarose gel electrophoresis. Template DNA molecules suitable for cluster generation were prepared from 1 ug of total RNA samples using the TruSeq RNA Sample Preparation Kit v2 (Illumina Inc., San Diego, Calif.) according to the manufacturer's instructions. The size distribution of the libraries was estimated by electrophoresis on Agilent High Sensitivity Bioanalyzer microfluidic chips. The minimum and average sizes of the amplified libraries were determined to be >200 nucleotides and 300-340 nucleotides, respectively. Libraries were quantified using the KAPA Library Quantification Kit (KK4824, Kapa Biosystems, Boston, Mass.). The libraries were pooled at equimolar concentrations and diluted prior to loading onto the flow cell of the HiSeq 2500 (Illumina Inc., San Diego, Calif.) for both clustering and sequencing. The libraries were extended and bridge-amplified to create single sequence clusters using the TruSeq Rapid PE Cluster Kit—HS (Illumina Inc., San Diego, Calif.). Amplified clusters in the flow cell were then sequenced with 50-bp paired-end reads using the TruSeq Rapid SBS Kit—HS (Illumina Inc., San Diego, Calif.) in rapid run mode. Real time image analysis and base calling were performed on the HiSeq 2500 instrument using the HiSeq Sequencing Control Software (HCS). CASAVA software version 1.8 was used for de-multiplexing and production of FASTQ sequence files.
# (§2) In order to estimate gene expression levels, paired-end RNAseq reads were subsequently mapped to RefSeq human transcripts (release 60) and the human genome (hg19) by using the short read aligner Bowtie2 (Langmead et al., 2012. Nature methods 9:357). The number of mapped reads for all transcript variants of a gene (counts) were combined into a single value and normalized denoted as rpkms (number of mapped reads per kilobase transcript per million sequenced reads, (Mortazavi et al., 2008. Nature methods 5:621)). The splice-site analysis was performed by mapping the paired-end RNASeq reads to RefSeq human transcripts using the alignment software GSNAP with default parameters and the option ‘sam-multiple-primaries’ in order to account for reads that were mapped multiple times to different splice variants. The number of reads spanning splice-sites was determined by applying the samtools mpileup software with default parameters for each transcript. Reads having an alignment start or end exactly on the splice-site were excluded from the analysis (Wu et al., 2005, Bioinformatics 21:1859; Wu et al., 2010, Bioinformatics 26:873; Li et al., 2009, Bioinformatics 25:2078). […]
# [2] = system: human genes (total transcript abundance) in PNN 1-46 cells; test: RNA sequencing, total transcript abundance at the gene level, Compound vs DMSO control; type: cell-based
# Procedure: as §1, with “CASAVA software version 1.8 was used for de-multiplexing and production of FASTQ sequence files.” left out
# as §2
# [3] = 500 nM vs DMSO control, FIG. 2C
structure (smiles),measurement,setting,value
CCN1CCC(c2cc(C)c3nc(-c4cc5c(C)nc(C)cn5n4)cc(=O)n3c2)CC1 [Compound 702],effect on STRN3 transcript variants,[1]; [3],a switch between variants NM_014574 and NM_001083893
same,genes to which the splice junctions with p>300 belong,[1]; [3],"SMN2, PDXDC1, STRN3, and pseudogene PDXDC2P"
same,splice junctions with p>300 (p=Δ×Log2 FC),[1]; [3],20 splice junctions
same,"splice junctions with p>300 that belong to PDXDC1, all similarly affected",[1]; [3],15 splice junctions
same,splice junctions with p>100 (p=Δ×Log2 FC),"[1]; 500 nM vs DMSO control, out of about 300,000 splice junctions analyzed, FIG. 2C",114 splice junctions
same,up spl j gene (gene with upregulated splice junctions),"[1]; PNN 1-46, 500 nM, 24 hours, splice junctions with p>100, * = pseudogene",STRN3 and APLP2 and TEX21P* and RCC1 and FOXM1 and VPS29
same,"genes up- or downregulated, respectively, at threshold |Log2FC| 1","[2]; 500 nM vs DMSO control, 11,714 human genes with rpkm >1, FIG. 2B",six
same,change in total mRNA abundance of SMN2,"[2]; 500 nM vs DMSO control, PNN 1-46, 24 hours, FIG. 2A",no change
same,Log2FC of total transcript expression of POLN (DNA polymerase nu),"[2]; 500 nM vs DMSO control, only changed gene among the gene families of FIG. 3",> 1
same,deregulation in gene families involved in DNA or RNA metabolism or cell survival,"[2]; 500 nM, 24 hours, PNN 1-46, FIG. 3",No deregulation

# From patent publication US10688099B2, “Methods for modulating the amount of RNA transcripts” (PTC Therapeutics, Inc., priority 2013, dated 2020)
